Results from US5036008A, “Antitumor antibiotic BU-3285T” (Bristol-Myers Company, priority 1990, dated 1991).
Converted amounts (≈) assume the structure as drawn. “Also recorded” adds a separate entry of the source.

Columns and labels:
[1] = system: T. mentagrophytes #4329; test: In vitro antifungal activity, serial agar dilution; settings: Trichophyton mentagrophytes, 40 h, pH 7
Description: (§2) In vitro antifungal activity was determined against various fungi by the serial agar dilution method. Sabouraud dextrose agar (pH 7.0) was used for the experiment. The inoculum size was adjusted to 10^6 CFU/ml. After incubation at 28° C. for 40 hours, the minimum inhibitory concentration (MIC) was examined.

[2] = system: Moser (human colorectal carcinoma) cells; test: In vitro cytotoxicity (Table 6)
Description: BU-3285T was tested for in vitro cytotoxicity against several murine and human tumor cell lines and for in vivo antitumor activity in mice. Mitomycin C was used as a reference compound in both in vitro and in vivo experiments. B16-F10 (murine melanoma) and Moser (human colorectal carcinoma) cells were grown to the logarithmic phase in an enriched Eagle minimum essential medium supplemented with fetal calf serum (FCS, 10%) and kanamycin (60 μg/ml); HCT-116 (human colon carcinoma) cells were in McCoy's 5A medium supplemented with FCS (10%), penicillin (100 U/ml) and streptomycin (100 μg/ml); and P388 (murine lymphocytic leukemia) cells and its vincristine-resistant subline (P388/VCR) were in RPMI 1640 medium supplemented with FCS (10%), penicillin (100 U/ml) and streptomycin (100 μg/ml).
B16-F10, Moser, HCT-116 and P388 cells were harvested and implanted into wells of a 96-well (for B16-F10, Moser and HCT-116 cells) or a 24-well (for P388 cells) tissue culture plate with test materials at the inoculum sizes of 3×10^4, 6 ×10^4, 6×10^4 and 2×10^4 cells/ml, respectively. They were incubated at 37° C. in a humidified atmosphere of 5% CO2 and 95% air for 72 hrs. […] For P388 cells, the number of viable cells was determined by a Coulter counter.

[3] = system: C. albicans A9540; test: In vitro antifungal activity, serial agar dilution; settings: Candida albicans, A9540, 40 h, pH 7
Description: as §2

[4] = system: C. neoformans IAM4514; test: In vitro antifungal activity, serial agar dilution; settings: Cryptococcus neoformans, IAM4514, 40 h, pH 7
Description: as §2

[5] = system: Piricularia oryzae D91; test: microbe, parasite or virus in culture; format: cell-based; settings: 40 h, pH 7
[6] = system: B16-F10 (murine melanoma) cells; test: In vitro cytotoxicity (Table 14); format: cell-based; settings: Mus musculus, B16-F10, 72 h
Description: B16-F10 (murine melanoma), HCT-116 (human colon carcinoma), A549 (human lung carcinoma) and A549/VP29 (an etoposide-resistant subline of A549) were grown in Eagle's MEM (Nissui) supplemented with FCS (fetal calf serum, 10%) and non-essential amino acids (B16-F10), or in McCoy's 5A medium (Gibco) with FCS (10%), essential and non-essential amino acids, vitamins and antibiotics (HCT-116 and both of A549) at 37° C. under a humidified atmosphere in a 5% CO2 incubator. Exponentially growing B16-F10, HCT-116 and A549 cells were harvested, counted and suspended in the culture medium at 1.5×10^4, 3×10^4 and 3×10^4 cells/ml, respectively. After planting 180 μl of cell suspension into wells of a 96-well microtiter plate on day 0, the test materials (20 μl) were added on day 1 and the plates were incubated for 72 hours. The cytotoxic activity was colorimetrically determined at 540 nm after staining viable cells with neutral red solution.

[7] = system: DNA biosynthesis in L1210 leukemia cells; test: Inhibition of macromolecule biosynthesis, DNA (Table 7); format: cell-based, murine
Description: (§1) Inhibitory effects of BU-3285T on macromolecule biosynthesis (DNA, RNA and protein) were determined in cultured L1210 murine leukemia cells. The cells (5×10^5 cells/ml) were incubated with the compound at 37° C. for 15 minutes and then further incubated for 60 minutes after the addition of labelled precursor, ^3 H-thymidine, ^14 C-uridine or ^3 H-leucine into the cultured mixture. After washing with chilled 5% trichloroacetic acid solution, the radioactivity incorporated into the acid-insoluble fraction of the cells was determined by a liquid scintillation counter.

[8] = system: P388 leukemia; test: In vivo antitumor activity against P388 leukemia (Table 8); settings: for Body wt. change on day 4 / MST (median survival time) / T/C: Q1D × 3
[9] = system: RNA biosynthesis in L1210 leukemia cells; test: Inhibition of macromolecule biosynthesis, RNA (Table 7); format: cell-based, murine; settings: Mus musculus, labelled precursor, 15 min + 60 min, 37° C., read-out: IC50, RNA synthesis
Description: as §1

[10] = system: Sporothrix schenckii IF08158; test: microbe, parasite or virus in culture; settings: IF08158, 40 h, pH 7
Description: as §2

[11] = system: B16 melanoma; test: In vivo antitumor activity against B16 melanoma (Table 10)
Description: Female CDF1 mice were intraperitoneally inoculated with 0.4 ml of diluted ascitic fluid containing 10^6 lymphocytic leukemia P388 cells or 10^5 lymphoid leukemia L1210 cells and male BDF1 mice were intraperitoneally inoculated with 0.5 ml of 10% melanotic melanoma B16 brei.

[12] = system: fungi; test: In vitro antifungal activity, overall statement; settings: various fungi
Description: as §2

[13] = system: A. fumigatus IAM2034; test: microbe, parasite or virus in culture; settings: Aspergillus fumigatus, IAM2034, 40 h, pH 7
Description: as §2

[14] = system: Trichophyton mentagrophytes D155; test: In vitro antifungal activity, serial agar dilution; settings: D155, 40 h, pH 7
Description: as §2

SMILES: CCCCC/C=C/C=C\C=C/C(O)C(C)C(C/C=C/C1OC(=O)C=CC1O)OS(=O)(=O)O (stereo not shown) [BU-3285T]
- MIC [1]: 12.5 µg/mL (≈ 26.6 µM)
- IC50 ([2]; Homo sapiens, 72 h): 0.85 µg/mL (≈ 1.81 µM)
- cytotoxic activity, comparison among cell lines ([2]; among B16-F10, HCT-116 and Moser): most potent cytotoxic activity against Moser cells
- MIC [3]: 25 µg/mL (≈ 53.1 µM)
- MIC [4]: 1.6 µg/mL (≈ 3.4 µM)
- MIC [5]: 50 µg/mL (≈ 106 µM)
- IC50 [6]: 38 µg/mL (≈ 80.8 µM)
- IC50 ([7]; Mus musculus, L1210, 3H-thymidine, ^14 C-uridine or 3H-leucine precursor, 15 min + 60 min, 37° C., read-out: IC50, DNA synthesis): > 100 µg/mL
- inhibitory effect on DNA synthesis ([7]; at 100 μg/ml, the highest concentration tested): no significant inhibitory effect
- Body wt. change on day 4 ([8]; 0.1 mg/kg/day ip): +1.5 g
- MST (median survival time) ([8]; 0.1 mg/kg/day ip): 12.0 days
- T/C ([8]; 0.1 mg/kg/day ip, significant if T/C ≥ 125%): 120%
- Body wt. change on day 4 ([8]; 0.3 mg/kg/day ip): +1.0 g
- MST (median survival time) ([8]; 0.3 mg/kg/day ip): 13.0 days
- T/C ([8]; 0.3 mg/kg/day ip, *2 significant, T/C ≥ 125%): 130%
- Body wt. change on day 4 ([8]; 1 mg/kg/day ip): +1.0 g
- MST (median survival time) ([8]; 1 mg/kg/day ip): 14.0 days
- T/C ([8]; 1 mg/kg/day ip, *2 significant, T/C ≥ 125%): 140%
- Body wt. change on day 4 ([8]; 3 mg/kg/day ip): +1.5 g
- MST (median survival time) ([8]; 3 mg/kg/day ip): 15.0 days
- T/C ([8]; 3 mg/kg/day ip, *2 significant, T/C ≥ 125%): 150%
- Body wt. change on day 4 ([8]; 10 mg/kg/day ip): 0.0 g
- MST (median survival time) ([8]; 10 mg/kg/day ip): 16.0 days
- T/C ([8]; 10 mg/kg/day ip, *2 significant, T/C ≥ 125%): 160%
- activity compared with mitomycin C ([8]; P388, in terms of minimum effective dose): comparable
- in vivo antitumor activity ([8]; P388 leukemia in mice): potent in vivo inhibitory activity; also recorded: good antitumor activity
- IC50 [9]: 14.4 µg/mL
- MIC [10]: 100 µg/mL (≈ 213 µM)
- activity compared with mitomycin C ([11]; B16, in terms of minimum effective dose): somewhat weaker
- in vivo antitumor activity ([11]; B16 melanoma in mice): potent in vivo inhibitory activity; also recorded: good antitumor activity
- antifungal activity in vitro [12]: exhibits in vitro antifungal activity
- antifungal activity in vitro ([12]; listed as BU-3285 T): relatively good and broad antifungal profile
- MIC [13]: > 100 µg/mL
- MIC [14]: 25 µg/mL (≈ 53.1 µM)
